Results taken from PMC8282797, “Strictly regulated agonist-dependent activation of AMPA-R is the key characteristic of TAK-653 for robust synaptic responses and cognitive improvement” (Scientific Reports, 2021).

Columns and labels:
GluA1i S743A = molecular target: T1, GluA1i S743A (Homo sapiens, UniProt P42261, S743A); test: Ca2+ influx assay in CHO cells expressing GluA1i S743A; format: cell-based; conditions: at each concentration of glutamate tested (0, 0.3 μM, 1 μM, 3 mM)
T1 construct: expressed in transfected cells; host or cells: CHO cells, transient electroporation
Procedure: (§1) Ca^2+ influx assays using human GluA1/flip and human stargazin co-expressing CHO cells plated at 3 × 10^4 cells/well in 96-well Black Clear plates (Corning Incorporated, Corning, NY) were performed as previously described, with some modifications. For evaluation of the species difference, rat GluA1/flip expressing CHO cells were plated. For mutant channels, the human GluA1i S743A mutant was generated using the In-Fusion HD Cloning Kit (Takara Bio Inc., Kusatsu, Japan) according to the manufacturer's protocol and transiently introduced to CHO cells by Gene Pulser II Electroporation System (Bio-Rad Laboratories, Inc., Hercules, CA). Relative increases of intracellular Ca^2+ levels were monitored for 3 min with a fluorometric imaging plate reader (CellLux, Perkin Elmer Life and Analytical Sciences, Inc., Shelton, CT). […]
(§2) Human GluA1/flip and human stargazin co-expressing CHO cells were plated at 3×10^4 cells/well in 96-well Black Clear plate (Corning Incorporated, Corning, NY). […] Relative increases of intracellular Ca^2+ levels by compounds in the presence and absence of 3 mM L-glutamate were monitored for 3 min by fluorometric imaging plate reader (CellLux, Perkin Elmer Life and Analytical Sciences, Inc., Shelton, CT). Activity of compound was defined as integration value of fluorescence value of each detection point. […] EC50 values were calculated by logistic regression analysis.

rGluA1i = test: Ca2+ influx assay in rGluA1i CHO cells (species difference); format: cell-based, rat; conditions: 3 mM glutamate
Procedure: as §1, §2

[1] = test system: GluA1-4i and TARP γ-2 or GluA1-4o and TARP γ-2; test: Ca2+ influx assay, AMPA-R subunit selectivity; format: cell-based, human
Procedure: Human GluA1/flip and human stargazin co-expressing CHO cells were plated at 3×10^4 cells/well in 96-well Black Clear plate (Corning Incorporated, Corning, NY). For subunit selectivity study, human AMPA-Rs (GluA1-4i, GluA1-4o and GluA1i mutants) and human TARPs γ2 co-expressing CHO cells were plated. For evaluation of the species difference, rat GluA1/flip expressing CHO cells were plated. For mutant channels, Human GluA1i S743A mutant was generated by In-Fusion HD Cloning Kit (Takara Bio Inc., Kusatsu, Japan) according to manufacturer's protocol. Each hGluA1i mutant vector was transiently introduced to CHO cells by Gene Pulser II Electroporation System (Bio-Rad Laboratories, Inc., Hercules, CA) and incubated for 6 h in 5% CO2 at 37°C. Then, cells were harvested and plated. These cells were seeded at 3×10^4 cells/well in 96-well Black Clear plate and incubated for 24 h in 5% CO2 at 37°C. […] Relative increases of intracellular Ca^2+ levels by compounds in the presence and absence of 3 mM L-glutamate were monitored for 3 min by fluorometric imaging plate reader (CellLux, Perkin Elmer Life and Analytical Sciences, Inc., Shelton, CT). Activity of compound was defined as integration value of fluorescence value of each detection point. […] EC50 values were calculated by logistic regression analysis. […]

BDNF protein levels = test: BDNF production in primary neurons; format: cell-based, rat; conditions: 24 h
Procedure: BDNF production in primary neurons was measured as previously described. Primary cultures of hippocampal neuronal cells at a density of 5 × 10^4 cells/well plated on poly-L-lysine coated 96-well plates (Sumitomo Bakelite) were treated with compounds in the presence or absence of AMPA (1 μM) and cultured in a humidified CO2 incubator with 5% CO2 at 37 °C for 24 h. The cells were washed once using phosphate buffered saline and were collected using 60 μL of lysis buffer (20 mM Tris-HCl at pH 8.0, 137 mM NaCl, 10% glycerol, 1% NP-40, 1% protease inhibitor cocktail [Sigma-Aldrich, St. Louis, MO]). Concentrations of BDNF protein were measured using BDNF ELISA Kits (Promega, Fitchburg, WI).
Primary cultures of hippocampal neuronal cells were prepared from fetal Sprague-Dawley rats at 19 days of gestation. Rat embryos were decapitated and their whole brains were isolated. Hippocampi were dissected in ice-cold Hanks' Balanced Salt Solutions (HBSS) under a microscope and then dispersed into cells using a neural cell dispersion kit (Sumitomo Bakelite Co., Ltd., Tokyo, Japan). The dissociated cells were suspended in Neurobasal medium containing B27 supplement (Thermo Fisher Scientific Inc.), 2 mM L-glutamine (Lonza, Basel, Switzerland), 100 U/mL penicillin (Lonza), 100 μg/mL streptomycin (Lonza) and 20 μg/mL gentamicin sulfate (Lonza). […]

hGluA1i = molecular target: T2, hGluA1i (Homo sapiens, UniProt P42261); test: Ca2+ influx assay in hGluA1i CHO cells; format: cell-based; conditions: in the presence of glutamate (3 mM)
T2 construct: expressed in transfected cells; host or cells: CHO cells
Procedure: as §1, §2

T2 sequence (P42261 19-906 isoform P42261-2 limits assumed): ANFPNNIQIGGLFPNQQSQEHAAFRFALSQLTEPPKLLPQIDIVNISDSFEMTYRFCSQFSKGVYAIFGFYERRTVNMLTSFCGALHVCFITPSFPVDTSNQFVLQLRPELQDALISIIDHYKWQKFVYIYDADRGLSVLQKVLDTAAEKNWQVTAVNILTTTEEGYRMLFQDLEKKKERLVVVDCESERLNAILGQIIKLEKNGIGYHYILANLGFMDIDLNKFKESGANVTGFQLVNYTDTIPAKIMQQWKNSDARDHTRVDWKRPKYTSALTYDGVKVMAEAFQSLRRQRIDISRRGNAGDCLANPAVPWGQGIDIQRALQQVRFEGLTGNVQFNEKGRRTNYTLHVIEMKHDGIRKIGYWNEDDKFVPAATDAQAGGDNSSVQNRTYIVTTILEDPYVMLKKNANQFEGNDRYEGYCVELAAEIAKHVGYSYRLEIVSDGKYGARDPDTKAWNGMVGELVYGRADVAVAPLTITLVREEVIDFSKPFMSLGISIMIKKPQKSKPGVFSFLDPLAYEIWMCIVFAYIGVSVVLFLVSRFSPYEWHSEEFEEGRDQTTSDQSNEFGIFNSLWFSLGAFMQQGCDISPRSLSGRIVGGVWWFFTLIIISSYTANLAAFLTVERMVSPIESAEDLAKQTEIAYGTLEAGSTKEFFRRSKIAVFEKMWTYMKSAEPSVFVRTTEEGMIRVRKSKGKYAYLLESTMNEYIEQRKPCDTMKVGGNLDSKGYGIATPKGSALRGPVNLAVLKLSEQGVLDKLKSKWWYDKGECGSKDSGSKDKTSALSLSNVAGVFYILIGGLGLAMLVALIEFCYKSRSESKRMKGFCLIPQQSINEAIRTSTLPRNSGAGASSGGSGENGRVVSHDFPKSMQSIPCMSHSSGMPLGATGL
T2 sequence (Q9Y698 whole entry partner): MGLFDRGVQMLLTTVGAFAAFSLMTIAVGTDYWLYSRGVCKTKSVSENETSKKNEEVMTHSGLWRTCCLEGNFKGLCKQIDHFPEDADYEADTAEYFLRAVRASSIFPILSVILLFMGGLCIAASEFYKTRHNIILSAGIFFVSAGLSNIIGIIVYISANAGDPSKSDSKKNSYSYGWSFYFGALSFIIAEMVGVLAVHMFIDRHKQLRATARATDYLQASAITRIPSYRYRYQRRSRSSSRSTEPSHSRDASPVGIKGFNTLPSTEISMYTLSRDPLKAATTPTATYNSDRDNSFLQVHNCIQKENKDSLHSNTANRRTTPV
T1 sequence (P42261 19-906 isoform P42261-2 S743A limits assumed): as the sequence (P42261 19-906 isoform P42261-2 limits assumed) above, with S725A counted along it
T1 sequence (Q9Y698 whole entry partner): as the sequence (Q9Y698 whole entry partner) above

**Q.** How did the “Maximum responses in S743A GluA1i versus wild-type GluA1i CHO cells” value (GluA1i S743A) turn out when `CC1=CN2CCS(=O)(=O)N=C2C(c2ccc(OC3CCCCC3)cc2)=N1` [TAK-653, 9-[4-(Cyclohexyloxy)phenyl]-7-methyl-3,4-dihydropyrazino[2,1-c][1,2,4]thiadiazine 2,2-dioxide] was run?
**A.** Its value is “higher”.

**Q.** And the “Fold difference in the EC50 value between rat and human receptors” value (rGluA1i)?
**A.** Its value is 1.1 fold.

**Q.** What about the “Subunit selectivity for homomeric AMPA-R” value [1] of the same compound?
**A.** The value was “did not show prominent subunit selectivity”.

**Q.** And the BDNF protein levels (BDNF protein levels; compound alone at 1 μM)?
**A.** The BDNF protein levels was “slightly increased”.

**Q.** And the BDNF protein levels (BDNF protein levels; in the presence of AMPA (1 μM))?
**A.** Its BDNF protein levels is “robustly increased”.

**Q.** And the EC50 (hGluA1i)?
**A.** The EC50 was 3.3 µM.
